Experimental data published in patent US20260373160A1, “COMPOSITION FOR IMPROVEMENT, PREVENTION OR TREATMENT OF STRESS AND DEPRESSION RELATED DISEASES COMPRISING TALAMPANEL” (POSTECH RESEARCH AND BUSINESS DEVELOPMENT FOUNDATION, priority 2022, published 2026).

Columns and labels:
Assay type in all cases: in vivo, C57BL6/J mice
[1] = system: mouse model of chronic stress-induced depression; experiment: Sucrose preference test (SPT) in mouse model of chronic stress-induced depression; settings: 28 days of restraint stress, i.p. daily; 2% sugar solution vs water, 3 hours; FIG. 7
Procedure: (§1) Experimental animals, 8-9 week old male C57BL6/J mice, were provided by Hyochang Science in Daegu, Korea. Mice were provided with food and water ad libitum under diurnal lighting conditions (12 hours light, 12 hours dark). All animal experimental procedures were approved by the Institutional Animal Care and Use Committee (IACUC) of Pohang University of Science and Technology, and all experiments were conducted in compliance with the approved guidelines.
(§2) To induce mice of chronic restraint stress-based depression, 8-9 week old male C57BL6/J mice were housed in single cages one day before the experiment.
(§3) Thirty minutes after drug administration, the mice were induced to enter a 50 ml conical tube with a hole to allow breathing, and paper towels were placed to eliminate any empty space, ensuring the mice remained in restraint for 4 hours.
To perform a sugar preference test in a mouse model of chronic stress-induced depression, the mice were deprived of food and water for 18 hours on Day 1 of the experiment. On Days 2 and 3, the mice were provided with food, along with a 2% sugar solution and water simultaneously to allow exposure to the 2% sugar. […] To measure the intake of the mice, the weights of the solution and bottle were recorded before and after the 3-hour test.
Sucrose preference was calculated by the following expression: (Sugar solution intake/Total liquid intake)×100. […]

[2] = Body weight change in mouse model of chronic restraint stress-based depression; settings: for body weight change compared to the control group: 15 days, with 4 h daily restraint stress, FIG. 3
Procedure: as §1, §2, §3

[3] = system: mouse model of chronic stress-induced depression; experiment: Forced swim test (FST) in mouse model of chronic stress-induced depression; settings: i.p. daily, last 4 of 6 minutes scored
Procedure: as §1
To induce mice of chronic restraint stress-based depression, 8-9 week old male C57BL6/J mice were housed in single cages one day before the experiment. […]
To perform the forced swim test in a mouse model of chronic stress-induced depression, a cylindrical tank, with a diameter of 20 cm and a height of 30 cm, was filled with water at a temperature range of 25 °C to 28 °C until the water level reached 15 cm. Then, each mouse was carefully placed in water, and the mouse's activity was recorded on video for 6 minutes. […]
Of the total 6 minutes of recording, the first 2 minutes were excluded as habituation, and the immobile time of each mouse was measured for the next 4 minutes. Mouse movement was defined as any activity other than the minimal movements required to maintain body balance and to ensure the head remained above water, and the immobile time was measured. […]

[4] = system: mouse model of chronic stress-induced depression; experiment: Tail suspension test (TST) in mouse model of chronic stress-induced depression; settings: 28 days of restraint stress, i.p. daily; 6 minutes scored; FIG. 6
Procedure: as §1, §2
Thirty minutes after drug administration, the mice were induced to enter a 50 ml conical tube with a hole to allow breathing, and paper towels were placed to eliminate any empty space, ensuring the mice remained in restraint for 4 hours. […]
The activity of each mouse was recorded on video for 6 minutes. Up to four mice were tested at a time, and the immobile time of each mouse was measured for a total of 6 minutes. The movement status of the mouse was defined based on limb movement, with a state of immobility determined when all limbs remained motionless, and the immobile time was measured. […]

CC(=O)N1N=C(c2ccc(N)cc2)c2cc3c(cc2C[C@H]1C)OCO3 [talampanel]
sucrose preference (sugar solution intake/total liquid intake) compared to the control group [1]: increased preference for the sugar solution compared to the control group
body weight change compared to the control group ([2]; 1 mg/kg i.p. daily): increase in body weight compared to the control group from Day 8 of administration
body weight change compared to the control group ([2]; 10 mg/kg i.p. daily): increase in body weight compared to the control group from Day 8 of administration
effect on weight loss due to stress and depression ([2]; i.p. daily, restraint stress, conclusion from body weight measurement): preventing weight loss caused by sustained stress
immobile time in forced swim test compared to the control group ([3]; 15 days of restraint stress, FIG. 4): significant reduction in immobile time
immobile time in forced swim test compared to the control group ([3]; 28 days of restraint stress, FIG. 5): significant reduction in immobile time
immobile time in tail suspension test compared to the control group [4]: significant reduction in immobile time
